In patent US20100029668A1, “NOVEL PYRIDAZINE DERIVATIVES” (SYNGENTA CROP PROTECTION, INC., priority 2006, published 2010):

Key:
Uncinula necator = assay: Uncinula necator/Grape/Preventive (action against powdery mildew on grape); type: in vivo; details: Erysiphe necator, 168 h, preventive spray, grape seedlings cv. Gutedel, assessed 7 days after inoculation, read-out: inhibit fungal infestation
Description: Uncinula necator/Grape/Preventive (Action Against Powdery Mildew on Grape) 5 weeks old grape seedlings cv. Gutedel are treated with the formulated test compound in a spray chamber. One day after application grape plants are inoculated by shaking plants infected with grape powdery mildew above the test plants. After an incubation period of 7 days at 24° C./22° C. and 70% r. h. under a light regime of 14/10 h (light/dark) the disease incidence is assessed.

[1] = tested on: Pyrenophora teres (Helminthosporium teres); assay: Pyrenophora teres (Helminthosporium teres)/Barley/Preventive (action against net blotch on barley); type: in vivo; details: 96 h, preventive spray, barley plants cv. Regina, assessed 4 days after inoculation, read-out: inhibit fungal infestation
Description: Pyrenophora teres (Helminthosporium teres)/Barley/Preventive (Action Against Net Blotch on Barley) 1-week-old barley plants cv. Regina are treated with the formulated test compound in a spray chamber. Two days after application barley plants are inoculated by spraying a spore suspension (2.6×10^4 conidia/ml) on the test plants. After an incubation period of 4 days at 20° C. and 95% r. h. the disease incidence is assessed.

Alternaria solani = assay: Alternaria solani/Tomato/Preventive (action against Alternaria on tomato); type: in vivo; details: 96 h, preventive spray, tomato plants cv. Roter Gnom, assessed 4 days after inoculation, read-out: inhibit fungal infestation
Description: (§1) Alternaria solani/Tomato/Preventive (Action Against Alternaria on Tomato) 4 weeks old tomato plants cv. Roter Gnom are treated with the formulated test compound in a spray chamber. Two days after application tomato plants are inoculated by spraying a spore suspension on the test plants. After an incubation period of 4 days at 22° C./18° C. and 95% r. h. in a greenhouse the disease incidence is assessed.

Botrvtis cinerea = assay: Botrvtis cinerea/Tomato/Preventive (action against Botrytis on tomato); type: in vivo; details: Solanum lycopersicum, 72 h, preventive spray, tomato plants cv. Roter Gnom, assessed 3 days after inoculation, read-out: inhibit fungal infestation
Description: as §1, with “Botrvtis cinerea/Tomato/Preventive (Action” for “Alternaria solani/Tomato/Preventive (Action”, “Against Botrytis” for “Against Alternaria”, “of 3” for “of 4”, “at 20°” for “at 22° C./18°”

Puccinia recondita = assay: Puccinia recondita/Wheat/Preventive (action against brown rust on wheat); type: in vivo; details: 264 h, preventive spray, wheat plants cv. Arina, assessed 11 days after inoculation, read-out: inhibit fungal infestation
Description: Puccinia recondita /Wheat/Preventive (Action Against Brown Rust on Wheat) 1 week old wheat plants cv. Arina are treated with the formulated test compound in a spray chamber. One day after application wheat plants are inoculated by spraying a spore suspension ([…] uredospores/ml) on the test plants. After an incubation period of 1 day at 20° C. and 95% r. h. plants are kept for 10 days 20° C./18° C. (day/night) and 60% r.h. in a greenhouse. The disease incidence is assessed 11 days after inoculation.

[2] = tested on: Maqnaporthe grisea (Pyricularia oryzae); assay: whole plant or invertebrate; type: in vivo; details: 144 h, read-out: inhibit fungal infestation

Row | SMILES | melting point [°C] | inhibition at 200 ppm (Uncinula necator) [%] | inhibition at 200 ppm [1] [%] | inhibition at 200 ppm (Alternaria solani) [%] | inhibition at 200 ppm (Botrvtis cinerea) [%] | inhibition at 200 ppm (Puccinia recondita) [%] | inhibition at 200 ppm [2] [%]
1 | CSc1ccc(-c2c(C)n[nH]c(=O)c2-c2ncc(Cl)cc2Cl)nc1 [I.u.006, 4-(3,5-dichloro-pyridin-2-yl)-6-methyl-5-(5-methylsulfanyl-pyridin-2-yl)-2H-pyridazin-3-one] | 229 |  |  |  |  |  | 
2 | CSc1ccc(-c2c(C)nnc(Cl)c2-c2ncc(Cl)cc2Cl)nc1 [I.u.008, 3-chloro-4-(3,5-dichloro-pyridin-2-yl)-6-methyl-5-(5-methylsulfanyl-pyridin-2-yl)-pyridazine] | 163 | ≥ 80 | ≥ 80 | ≥ 80 | ≥ 80 |  | 
3 | COc1nnc(C)c(-c2ccc(SC)cn2)c1-c1ncc(Cl)cc1Cl [I.u.009, 4-(3,5-dichloro-pyridin-2-yl)-3-methoxy-6-methyl-5-(5-methylsulfanyl-pyridin-2-yl)-pyridazine] | 170 to 171 |  |  |  | ≥ 80 | ≥ 80 | 
4 | CSc1ccc(-c2c(C)nnc(C)c2-c2ncc(Cl)cc2Cl)nc1 [I.u.010, 4-(3,5-dichloro-pyridin-2-yl)-3,6-dimethyl-5-(5-methylsulfanyl-pyridin-2-yl)-pyridazine] |  |  | ≥ 80 |  |  |  | ≥ 80
